Source: ChEMBL document CHEMBL1201862, “PubChem BioAssay data set” (2004)
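Briefly, cells in 96-well plates were exposed to five compound concentrations for 48 h, and endpoints were estimated by linear interpolation. The concentration for 50% growth inhibition is given as GI50.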 Activity calls are given as the source filed them. No stated cut-off is given here; in the data, active = GI50 up to about 1.1 µM and inactive = higher.

Key:
Experiment in all cases: DTP human tumour cell line panel, 48 h
[1] = test system: 786-0
[2] = test system: A498
[3] = test system: A549
[4] = test system: ACHN
[5] = test system: BT-549
[6] = test system: CAKI-1
[7] = test system: CCRF-CEM
[8] = test system: COLO 205
[9] = test system: DU-145
[10] = test system: EKVX
[11] = test system: HCC 2998
[12] = test system: HCT-116
[13] = test system: HCT-15
[14] = test system: HL-60
[15] = test system: HOP-62
[16] = test system: HOP-92
[17] = test system: HT-29
[18] = test system: Hs-578T
[19] = test system: IGROV-1
[20] = test system: K562
[21] = test system: KM12
[22] = test system: LOX IMVI
[23] = test system: M14
[24] = test system: MCF7
[25] = test system: MDA-MB-231
[26] = test system: MDA-MB-435
[27] = test system: MDA-N
[28] = test system: MOLT-4
[29] = test system: Malme-3M
[30] = test system: NCI-H226
[31] = test system: NCI-H23
[32] = test system: NCI-H460
[33] = test system: NCI-H522
[34] = test system: NCI/ADR-RES
[35] = test system: OVCAR-3
[36] = test system: OVCAR-4
[37] = test system: OVCAR-5
[38] = test system: OVCAR-8
[39] = test system: PC-3
[40] = test system: RPMI-8226
[41] = test system: RXF 393
[42] = test system: SF-268
[43] = test system: SF-295
[44] = test system: SF-539
[45] = test system: SK-MEL-28
[46] = test system: SK-MEL-2
[47] = test system: SK-MEL-5
[48] = test system: SK-OV-3
[49] = test system: SN12C
[50] = test system: SNB-19
[51] = test system: SNB-75
[52] = test system: SR
[53] = test system: SW-620
[54] = test system: T47D
[55] = test system: TK-10
[56] = test system: U-251
[57] = test system: UACC-257
[58] = test system: UACC-62
[59] = test system: UO-31

`Cc1ccc(NC(=O)CC(=O)N2N=C(N(C)c3ccccc3)CC2c2ccccc2)cc1` (stereo not drawn) was tested, and the GI50 [1] was > 100 µM (inactive), the GI50 [2] was > 100 µM (inactive) and the GI50 [3] was > 100 µM (inactive). For the same compound, the GI50 [4] was > 100 µM (inactive), the GI50 [5] was > 100 µM (inactive) and the GI50 [6] was > 100 µM (inactive). The GI50 [7] was > 100 µM (inactive), the GI50 [8] was > 100 µM (inactive) and the GI50 [9] was > 100 µM (inactive). For the same compound, the GI50 [10] was > 100 µM (inactive), the GI50 [11] was > 100 µM (inactive) and the GI50 [12] was > 100 µM (inactive). For the same compound, the GI50 [13] was > 100 µM, the GI50 [14] was > 100 µM (inactive) and the GI50 [15] was > 100 µM (inactive). The GI50 [16] was > 100 µM (inactive), the GI50 [17] was > 100 µM (inactive) and the GI50 [18] was > 100 µM (inactive). For the same compound, the GI50 [19] was > 100 µM (inactive), the GI50 [20] was > 100 µM (inactive) and the GI50 [21] was > 100 µM (inactive). For the same compound, the GI50 [22] was > 100 µM (inactive), the GI50 [23] was > 100 µM (inactive) and the GI50 [24] was > 100 µM (inactive). For the same compound, the GI50 [25] was > 100 µM (inactive), the GI50 [26] was > 100 µM (inactive) and the GI50 [27] was > 100 µM (inactive). The GI50 [28] was > 100 µM (inactive), the GI50 [29] was > 100 µM (inactive) and the GI50 [30] was > 100 µM (inactive). For the same compound, the GI50 [31] was > 100 µM (inactive), the GI50 [32] was > 100 µM (inactive) and the GI50 [33] was > 100 µM (inactive). The GI50 [34] was > 100 µM (inactive), the GI50 [35] was > 100 µM (inactive) and the GI50 [36] was 68.5 µM (inactive). The GI50 [37] was > 100 µM (inactive), the GI50 [38] was 58.7 µM (inactive) and the GI50 [39] was > 100 µM (inactive). For the same compound, the GI50 [40] was > 100 µM (inactive), the GI50 [41] was > 100 µM (inactive) and the GI50 [42] was > 100 µM (inactive). The GI50 [43] was > 100 µM (inactive), the GI50 [44] was > 100 µM (inactive) and the GI50 [45] was > 100 µM (inactive). The GI50 [46] was > 100 µM (inactive), the GI50 [47] was > 100 µM (inactive) and the GI50 [48] was > 100 µM (inactive). The GI50 [49] was > 100 µM (inactive), the GI50 [50] was > 100 µM (inactive) and the GI50 [51] was 25.4 µM (inactive). The GI50 [52] was > 100 µM (inactive), the GI50 [53] was > 100 µM (inactive) and the GI50 [54] was > 100 µM (inactive). For the same compound, the GI50 [55] was > 100 µM (inactive), the GI50 [56] was > 100 µM (inactive) and the GI50 [57] was > 100 µM (inactive). For the same compound, the GI50 [58] was > 100 µM (inactive) and the GI50 [59] was > 100 µM (inactive).

For `Cc1cccc(NC(=O)O/N=C(\Cl)C(C)C)c1`, the GI50 [1] was 2 µM (inactive), the GI50 [2] was 18.5 µM (inactive) and the GI50 [3] was 20.5 µM (inactive). The GI50 [4] was 2.02 µM (inactive), the GI50 [5] was 5.45 µM (inactive) and the GI50 [6] was 1.74 µM (inactive). For the same compound, the GI50 [7] was 0.847 µM (active), the GI50 [8] was 2.01 µM (inactive) and the GI50 [9] was 18.6 µM (inactive). For the same compound, the GI50 [10] was 6.03 µM (inactive), the GI50 [11] was 19.1 µM (inactive) and the GI50 [12] was 3.37 µM (inactive). The GI50 [13] was 2.25 µM, the GI50 [14] was 1.94 µM (inactive) and the GI50 [15] was 19 µM (inactive). The GI50 [16] was 1.66 µM (inactive), the GI50 [17] was 10.4 µM (inactive) and the GI50 [18] was 23.1 µM (inactive). For the same compound, the GI50 [19] was 17.5 µM (inactive), the GI50 [20] was 2.31 µM (inactive) and the GI50 [21] was 19.4 µM (inactive). The GI50 [22] was 1.83 µM (inactive), the GI50 [23] was 4.58 µM (inactive) and the GI50 [24] was 10 µM (inactive). The GI50 [25] was 17.9 µM (inactive), the GI50 [26] was 14.5 µM (inactive) and the GI50 [27] was 10.5 µM (inactive). The GI50 [28] was 2.15 µM (inactive), the GI50 [29] was 2.19 µM (inactive) and the GI50 [30] was 18.6 µM (inactive). For the same compound, the GI50 [31] was 15.1 µM (inactive), the GI50 [32] was 16.8 µM (inactive) and the GI50 [33] was 1.54 µM (inactive). For the same compound, the GI50 [34] was 21.3 µM (inactive), the GI50 [35] was 6.15 µM (inactive) and the GI50 [36] was 14 µM (inactive). The GI50 [37] was 19.4 µM (inactive), the GI50 [38] was 19.4 µM (inactive) and the GI50 [39] was 16.7 µM (inactive). The GI50 [40] was 2.96 µM (inactive), the GI50 [41] was 13.9 µM (inactive) and the GI50 [42] was 20 µM (inactive). The GI50 [43] was 17.5 µM (inactive), the GI50 [44] was 6.21 µM (inactive) and the GI50 [45] was 7.19 µM (inactive). The GI50 [46] was 17.7 µM (inactive), the GI50 [47] was 16.4 µM (inactive) and the GI50 [48] was 17.7 µM (inactive). The GI50 [49] was 3.37 µM (inactive), the GI50 [50] was 20.3 µM (inactive) and the GI50 [51] was 18.1 µM (inactive). For the same compound, the GI50 [52] was 1.38 µM (inactive), the GI50 [53] was 2.19 µM (inactive) and the GI50 [54] was 6.82 µM (inactive). The GI50 [55] was 14 µM (inactive), the GI50 [56] was 20.7 µM (inactive) and the GI50 [57] was 17.3 µM (inactive). For the same compound, the GI50 [58] was 15.9 µM (inactive) and the GI50 [59] was 16.6 µM (inactive).
